Reference: the supplement of paper PMC10307832

What was measured:
Assay in all cases: relative viability (nuclei count vs DMSO), 5 days (fraction); higher = more cells survive
Carboplatin + Pictilisib = compound: C1CC(C1)(C(=O)O)C(=O)O.[NH2-].[NH2-].[Pt+2] [Carboplatin] + CS(=O)(=O)N1CCN(Cc2cc3nc(-c4cccc5[nH]ncc45)nc(N4CCOCC4)c3s2)CC1 [Pictilisib] (partner 1 µM)
How it was run: (§1)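 Relative viability equals treated-well nuclei counts divided by vehicle-well nuclei counts. Counts came from 4× images of lung cancer cell lines grown in 1536-well plates for 5 days after pin-tool dosing on the day after seeding. Dosing used one drug alone or a fixed anchor-drug dose plus five library-drug doses (not always all listed) in √10 steps, and values are medians of duplicate plates.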

MLN4924 + Pictilisib = compound: NS(=O)(=O)OC[C@@H]1C[C@@H](n2ccc3c(N[C@H]4CCc5ccccc54)ncnc32)C[C@@H]1O [MLN4924] + CS(=O)(=O)N1CCN(Cc2cc3nc(-c4cccc5[nH]ncc45)nc(N4CCOCC4)c3s2)CC1 [Pictilisib] (partner 1 µM)
How it was run: as §1

MLN4924 + Decitabine = compound: NS(=O)(=O)OC[C@@H]1C[C@@H](n2ccc3c(N[C@H]4CCc5ccccc54)ncnc32)C[C@@H]1O [MLN4924] + Nc1ncn([C@H]2C[C@H](O)[C@@H](CO)O2)c(=O)n1 [Decitabine] (partner 2 µM)
How it was run: as §1

Carboplatin + Lapatinib = compound: C1CC(C1)(C(=O)O)C(=O)O.[NH2-].[NH2-].[Pt+2] [Carboplatin] + CS(=O)(=O)CCNCc1ccc(-c2ccc3ncnc(Nc4ccc(OCc5cccc(F)c5)c(Cl)c4)c3c2)o1 [Lapatinib] (partner 2 µM)
How it was run: as §1

Cell Line | relative viability (Carboplatin + Pictilisib; first compound 0.08 µM) | relative viability (Carboplatin + Pictilisib; first compound 0.253 µM) | relative viability (Carboplatin + Pictilisib; first compound 0.8 µM) | relative viability (Carboplatin + Pictilisib; first compound 2.53 µM) | relative viability (Carboplatin + Pictilisib; first compound 8 µM) | relative viability (MLN4924 + Pictilisib; first compound 0.04 µM) | relative viability (MLN4924 + Pictilisib; first compound 0.1265 µM) | relative viability (MLN4924 + Pictilisib; first compound 0.4 µM) | relative viability (MLN4924 + Pictilisib; first compound 1.265 µM) | relative viability (MLN4924 + Pictilisib; first compound 4 µM) | relative viability (MLN4924 + Decitabine; first compound 0.04 µM) | relative viability (MLN4924 + Decitabine; first compound 0.1265 µM) | relative viability (MLN4924 + Decitabine; first compound 0.4 µM) | relative viability (MLN4924 + Decitabine; first compound 1.265 µM) | relative viability (MLN4924 + Decitabine; first compound 4 µM) | relative viability (Carboplatin + Lapatinib; first compound 0.08 µM) | relative viability (Carboplatin + Lapatinib; first compound 0.253 µM) | relative viability (Carboplatin + Lapatinib; first compound 0.8 µM) | relative viability (Carboplatin + Lapatinib; first compound 2.53 µM) | relative viability (Carboplatin + Lapatinib; first compound 8 µM)
NCI-H2347 | 0.65 | 0.516 | 0.623 | 0.708 | 0.74 | 0.841 | 0.895 | 0.387 | 0.324 | 0.369 | 0.623 | 0.694 | 0.495 | 0.413 | 0.335 | 1.02 | 0.926 | 0.918 | 0.949 | 0.888
NCI-H2405 | 0.588 | 0.405 | 0.472 | 0.45 | 0.428 | 0.452 | 0.73 | 0.505 | 0.246 | 0.254 | 0.659 | 0.483 | 0.406 | 0.28 | 0.28 | 1.31 | 1.06 | 1.12 | 1.15 | 0.904
NCI-H3122 | 0.62 | 0.659 | 0.549 | 0.593 | 0.563 | 0.591 | 0.376 | 0.222 | 0.153 | 0.136 | 0.423 | 0.264 | 0.2 | 0.14 | 0.125 | 1.1 | 1 | 0.981 | 0.953 | 0.995
PC-3 [JPC-3] | 0.912 | 0.684 | 0.761 | 0.701 | 0.706 | 0.904 | 0.817 | 0.334 | 0.251 | 0.313 | 0.808 | 0.83 | 0.408 | 0.46 | 0.451 | 0.451 | 0.458 | 0.465 | 0.468 | 0.446
PC-14 | 0.815 | 0.744 | 0.62 | 0.698 | 0.349 | 0.849 | 0.634 | 0.307 | 0.0791 | 0.0776 | 0.275 | 0.177 | 0.105 | 0.0656 | 0.104 | 0.312 | 0.368 | 0.33 | 0.354 | 0.251
RERF-LC-KJ | 0.584 | 0.48 | 0.512 | 0.453 | 0.316 | 0.532 | 0.315 | 0.154 | 0.139 | 0.192 | 0.592 | 0.497 | 0.24 | 0.182 | 0.236 | 0.854 | 0.838 | 0.822 | 0.841 | 0.726
SK-LU-1 | 0.542 | 0.664 | 0.528 | 0.542 | 0.411 | 0.411 | 0.505 | 0.383 | 0.171 | 0.172 | 0.645 | 0.661 | 0.309 | 0.29 | 0.24 | 0.99 | 1.01 | 0.766 | 0.797 | 0.735
SK-MES-1 | 0.402 | 0.272 | 0.358 | 0.328 | 0.303 | 0.425 | 0.535 | 0.356 | 0.174 | 0.198 | 0.405 | 0.339 | 0.233 | 0.16 | 0.205 | 0.469 | 0.475 | 0.506 | 0.548 | 0.472
SW 1573 | 0.408 | 0.603 | 0.492 | 0.555 | 0.399 | 0.487 | 0.637 | 0.22 | 0.0805 | 0.0657 | 0.525 | 0.313 | 0.158 | 0.0741 | 0.0974 | 1.05 | 1.1 | 1.17 | 1.3 | 0.961
